Converted amounts (≈) assume the structure as drawn. The source made the active and inactive calls. No cut-off for these calls is given here.
Experiments:
HT-29 [1] = assay: Antiproliferative activity against ATM-proficient human HT-29 cells assessed as reduction in cell proliferation incubated for 3 days by MTT assay; assay type: functional, cell-based; conditions: HT-29, 72 h
LoVo [2] = assay: Antiproliferative activity against ATM-deficient human LoVo cells assessed as reduction in cell proliferation at 0.1 to 25 uM incubated for 3 days by MTT assay; assay type: functional, cell-based; conditions: dose 0.1-25 µM, time 3.0 day
HT-29 [3] = assay: Antiproliferative activity against ATM-proficient human HT-29 cells assessed as reduction in cell proliferation at 0.5 to 22 uM incubated for 3 days by MTT assay; assay type: functional, cell-based; conditions: dose 0.5-22 µM, time 3.0 day
[4] = Half life in Sprague-Dawley rat at 1 mg/kg, iv and measured upto 24 hrs by LC-MS analysis; assay type: ADME, organism-based; conditions: in vivo
[5] = AUC(0 to infinity) in Sprague-Dawley rat at 1 mg/kg, iv and measured upto 24 hrs by LC-MS analysis; assay type: ADME, organism-based; set-up: time < 24 hrs, dose 1 mg/kg, route iv; conditions: in vivo
[6] = Clearance in Sprague-Dawley rat at 1 mg/kg, iv and measured upto 24 hrs by LC-MS analysis; assay type: ADME, organism-based; conditions: in vivo
[7] = Half life in Sprague-Dawley rat at 5 mg/kg, po and measured upto 24 hrs by LC-MS analysis; assay type: ADME, organism-based; conditions: in vivo
[8] = Tmax in Sprague-Dawley rat at 5 mg/kg, po and measured upto 24 hrs by LC-MS analysis; assay type: ADME, organism-based; conditions: in vivo
[9] = AUCt in Sprague-Dawley rat at 5 mg/kg, po and measured upto 24 hrs by LC-MS analysis; assay type: ADME, organism-based; set-up: time < 24 hrs, dose 5 mg/kg, route po; conditions: in vivo
[10] = MRT(t) in Sprague-Dawley rat at 5 mg/kg, po and measured upto 24 hrs by LC-MS analysis; assay type: ADME, organism-based; conditions: in vivo
Cytochrome P450 2C9 = Cytochrome P450 2C9 (Homo sapiens, UniProt P11712); assay: Inhibition of CYP2C9 in human liver microsomes using […] as substrate preincubated for 5 mins followed by NADPH addition and measured after 120 mins by LC-MS/MS analysis; assay type: ADME, Microsome
Cytochrome P450 3A4 = Cytochrome P450 3A4 (Homo sapiens, UniProt P08684); assay: Inhibition of CYP3A4 in human liver microsomes using midazolam as substrate preincubated for 5 mins followed by NADPH addition and measured after 120 mins by LC-MS/MS analysis; assay type: ADME, Microsome
[11] = Protein binding in monkey plasma at 1 uM incubated for 6 hrs by dialysis based LC-MS/MS analysis; assay type: ADME, cell-free, Macaca mulatta; conditions: rhesus monkey, read-out: PPB (converted)
[12] = Protein binding in Beagle dog plasma at 1 uM incubated for 6 hrs by dialysis based LC-MS/MS analysis; assay type: ADME, cell-free, Canis lupus familiaris; conditions: read-out: PPB (converted)
[13] = Protein binding in rat plasma at 1 uM incubated for 6 hrs by dialysis based LC-MS/MS analysis; assay type: ADME, cell-free; conditions: read-out: PPB (converted)
[14] = Protein binding in mouse plasma at 1 uM incubated for 6 hrs by dialysis based LC-MS/MS analysis; assay type: ADME, cell-free; conditions: read-out: PPB (converted)
LoVo [15] = assay: Inhibition of colony formation of ATM-deficient human LoVo cells at 0.3 to 1 uM incubated for 2 weeks by crystal violet staining based assay; assay type: functional, cell-based; conditions: dose 0.3-1 µM
HT-29 [16] = assay: Antiproliferative activity against ATM-proficient human HT-29 cells assessed as reduction in cell viability incubated for 3 days in presence of AZD-1390 by MTT assay; assay type: functional, cell-based; conditions: HT-29, 72 h
HCT-116 = assay: Synergistic antiproliferative activity against ATM-proficient human HCT-116 cells assessed as reduction in cell viability incubated for 3 days in presence of oxaliplatin by MTT assay; assay type: functional, cell-based; conditions: HCT-116, 72 h
A549 = assay: Synergistic antiproliferative activity against ATM-proficient human A549 cells assessed as reduction in cell viability incubated for 3 days in presence of cisplatin by MTT assay; assay type: functional, cell-based; conditions: A549, 72 h
MCF7 = assay: Antiproliferative activity against human MCF7 cells assessed as reduction in cell viability incubated for 3 days by MTT assay; assay type: functional, cell-based; conditions: MCF7, 72 h
MDA-MB-231 = assay: Synergistic antiproliferative activity against human MDA-MB-231 cells assessed as reduction in cell viability incubated for 3 days in presence of olaparib by MTT assay; assay type: functional, cell-based; conditions: MDA-MB-231, 72 h
[17] = Aqueous solubility of compound at pH 2.0 by HPLC-MS/MS analysis; assay type: physicochemical; conditions: aqueous medium
[18] = Aqueous solubility of compound at pH 7.4 by HPLC-MS/MS analysis; assay type: physicochemical; conditions: aqueous medium
[19] = Efflux ratio of apparent permeability across basolateral to apical side over apical to basolateral side in human Caco2 cells; assay type: ADME, cell-based; conditions: Caco-2
[20] = molecular target: Phosphatidylinositol 4,5-bisphosphate 3-kinase catalytic subunit alpha isoform (Homo sapiens, UniProt P42336); assay: Inhibition of PI3Kalpha (unknown origin) using peptide as substrate preincubated for 10 mins followed by substrate addition by microplate reader analysis
[21] = molecular target: Serine-protein kinase ATM (Homo sapiens, UniProt Q13315); assay: Inhibition of ATM (unknown origin) using peptide as substrate preincubated for 10 mins followed by substrate addition by microplate reader analysis
[22] = molecular target: DNA-dependent protein kinase catalytic subunit (Homo sapiens, UniProt P78527); assay: Inhibition of DNA-PK (unknown origin) using peptide as substrate preincubated for 10 mins followed by substrate addition by microplate reader analysis
in vitro = conditions: rat, liver microsomes

Sequence of Serine-protein kinase ATM (Q13315 whole entry): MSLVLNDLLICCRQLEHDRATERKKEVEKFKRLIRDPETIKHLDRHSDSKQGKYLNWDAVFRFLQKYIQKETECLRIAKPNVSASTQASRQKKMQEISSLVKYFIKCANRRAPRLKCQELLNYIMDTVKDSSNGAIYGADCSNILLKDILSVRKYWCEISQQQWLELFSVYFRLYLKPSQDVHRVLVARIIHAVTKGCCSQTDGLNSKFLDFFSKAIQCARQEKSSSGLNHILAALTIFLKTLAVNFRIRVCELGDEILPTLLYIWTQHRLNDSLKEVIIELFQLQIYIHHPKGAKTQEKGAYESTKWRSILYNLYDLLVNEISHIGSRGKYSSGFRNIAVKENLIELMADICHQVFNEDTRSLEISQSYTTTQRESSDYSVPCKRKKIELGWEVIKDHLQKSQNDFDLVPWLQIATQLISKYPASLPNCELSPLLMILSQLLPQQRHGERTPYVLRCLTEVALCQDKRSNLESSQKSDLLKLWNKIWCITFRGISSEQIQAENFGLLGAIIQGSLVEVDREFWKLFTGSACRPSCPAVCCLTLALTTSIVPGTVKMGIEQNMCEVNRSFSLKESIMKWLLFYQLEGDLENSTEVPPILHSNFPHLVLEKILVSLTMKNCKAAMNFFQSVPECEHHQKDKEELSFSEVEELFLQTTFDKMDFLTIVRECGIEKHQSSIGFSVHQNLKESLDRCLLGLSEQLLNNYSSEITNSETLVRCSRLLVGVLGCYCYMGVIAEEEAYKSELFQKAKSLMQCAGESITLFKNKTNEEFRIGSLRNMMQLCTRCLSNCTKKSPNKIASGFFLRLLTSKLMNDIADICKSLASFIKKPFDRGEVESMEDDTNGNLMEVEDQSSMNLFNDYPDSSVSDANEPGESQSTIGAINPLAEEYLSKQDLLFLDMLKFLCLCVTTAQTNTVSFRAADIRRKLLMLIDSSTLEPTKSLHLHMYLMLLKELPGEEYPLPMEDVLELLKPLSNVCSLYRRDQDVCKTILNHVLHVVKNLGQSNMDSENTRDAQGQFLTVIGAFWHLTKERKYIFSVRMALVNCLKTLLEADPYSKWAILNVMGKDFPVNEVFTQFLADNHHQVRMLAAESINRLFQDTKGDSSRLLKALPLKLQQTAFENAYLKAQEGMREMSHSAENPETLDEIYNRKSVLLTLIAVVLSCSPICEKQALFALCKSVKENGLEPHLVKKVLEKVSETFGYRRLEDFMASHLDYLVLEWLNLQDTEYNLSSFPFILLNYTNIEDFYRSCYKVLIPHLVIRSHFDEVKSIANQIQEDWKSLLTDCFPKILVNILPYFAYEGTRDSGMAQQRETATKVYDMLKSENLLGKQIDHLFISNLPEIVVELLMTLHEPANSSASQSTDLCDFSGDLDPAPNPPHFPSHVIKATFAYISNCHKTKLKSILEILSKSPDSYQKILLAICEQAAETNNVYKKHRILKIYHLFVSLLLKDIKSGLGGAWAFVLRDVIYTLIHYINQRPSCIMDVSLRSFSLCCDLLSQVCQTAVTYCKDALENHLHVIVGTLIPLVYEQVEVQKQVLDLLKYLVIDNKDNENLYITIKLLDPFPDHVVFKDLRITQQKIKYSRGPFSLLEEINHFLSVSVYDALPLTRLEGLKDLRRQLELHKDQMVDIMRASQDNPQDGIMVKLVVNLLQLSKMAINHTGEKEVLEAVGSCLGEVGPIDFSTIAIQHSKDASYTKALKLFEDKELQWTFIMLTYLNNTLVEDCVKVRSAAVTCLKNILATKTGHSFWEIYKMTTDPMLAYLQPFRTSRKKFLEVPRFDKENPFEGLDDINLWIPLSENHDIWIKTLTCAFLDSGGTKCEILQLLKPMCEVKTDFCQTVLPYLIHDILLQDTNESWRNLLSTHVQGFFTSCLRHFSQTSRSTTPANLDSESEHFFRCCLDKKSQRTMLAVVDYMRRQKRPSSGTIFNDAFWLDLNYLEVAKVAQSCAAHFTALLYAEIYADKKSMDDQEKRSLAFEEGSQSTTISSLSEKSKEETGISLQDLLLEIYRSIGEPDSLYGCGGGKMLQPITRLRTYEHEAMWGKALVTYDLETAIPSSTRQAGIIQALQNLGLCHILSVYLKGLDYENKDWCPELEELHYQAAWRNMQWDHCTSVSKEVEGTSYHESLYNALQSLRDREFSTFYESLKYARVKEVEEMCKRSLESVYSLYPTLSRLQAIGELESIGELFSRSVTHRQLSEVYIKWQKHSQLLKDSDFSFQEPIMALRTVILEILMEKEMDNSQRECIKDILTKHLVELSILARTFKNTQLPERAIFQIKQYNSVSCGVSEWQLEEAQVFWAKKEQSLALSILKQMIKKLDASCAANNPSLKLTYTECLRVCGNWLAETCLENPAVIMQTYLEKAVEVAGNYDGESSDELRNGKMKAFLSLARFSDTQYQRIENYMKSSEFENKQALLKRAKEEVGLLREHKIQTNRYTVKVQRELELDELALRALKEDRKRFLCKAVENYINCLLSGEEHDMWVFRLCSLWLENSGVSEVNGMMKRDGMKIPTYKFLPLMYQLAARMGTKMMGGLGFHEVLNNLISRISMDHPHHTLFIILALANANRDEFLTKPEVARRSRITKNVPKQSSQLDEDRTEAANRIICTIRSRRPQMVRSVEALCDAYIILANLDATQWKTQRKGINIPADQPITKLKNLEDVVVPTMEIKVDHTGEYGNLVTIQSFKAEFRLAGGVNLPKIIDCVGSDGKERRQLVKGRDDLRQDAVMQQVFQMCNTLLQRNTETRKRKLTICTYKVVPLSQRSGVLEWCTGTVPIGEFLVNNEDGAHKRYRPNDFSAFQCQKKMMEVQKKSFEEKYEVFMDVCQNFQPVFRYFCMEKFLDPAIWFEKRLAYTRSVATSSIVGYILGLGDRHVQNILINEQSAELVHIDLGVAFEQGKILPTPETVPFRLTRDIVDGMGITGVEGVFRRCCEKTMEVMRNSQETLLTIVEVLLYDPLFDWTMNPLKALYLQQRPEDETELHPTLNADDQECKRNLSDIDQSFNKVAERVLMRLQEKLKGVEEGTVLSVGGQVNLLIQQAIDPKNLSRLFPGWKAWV
Sequence of Phosphatidylinositol 4,5-bisphosphate 3-kinase catalytic subunit alpha isoform (P42336 whole entry, canonical isoform): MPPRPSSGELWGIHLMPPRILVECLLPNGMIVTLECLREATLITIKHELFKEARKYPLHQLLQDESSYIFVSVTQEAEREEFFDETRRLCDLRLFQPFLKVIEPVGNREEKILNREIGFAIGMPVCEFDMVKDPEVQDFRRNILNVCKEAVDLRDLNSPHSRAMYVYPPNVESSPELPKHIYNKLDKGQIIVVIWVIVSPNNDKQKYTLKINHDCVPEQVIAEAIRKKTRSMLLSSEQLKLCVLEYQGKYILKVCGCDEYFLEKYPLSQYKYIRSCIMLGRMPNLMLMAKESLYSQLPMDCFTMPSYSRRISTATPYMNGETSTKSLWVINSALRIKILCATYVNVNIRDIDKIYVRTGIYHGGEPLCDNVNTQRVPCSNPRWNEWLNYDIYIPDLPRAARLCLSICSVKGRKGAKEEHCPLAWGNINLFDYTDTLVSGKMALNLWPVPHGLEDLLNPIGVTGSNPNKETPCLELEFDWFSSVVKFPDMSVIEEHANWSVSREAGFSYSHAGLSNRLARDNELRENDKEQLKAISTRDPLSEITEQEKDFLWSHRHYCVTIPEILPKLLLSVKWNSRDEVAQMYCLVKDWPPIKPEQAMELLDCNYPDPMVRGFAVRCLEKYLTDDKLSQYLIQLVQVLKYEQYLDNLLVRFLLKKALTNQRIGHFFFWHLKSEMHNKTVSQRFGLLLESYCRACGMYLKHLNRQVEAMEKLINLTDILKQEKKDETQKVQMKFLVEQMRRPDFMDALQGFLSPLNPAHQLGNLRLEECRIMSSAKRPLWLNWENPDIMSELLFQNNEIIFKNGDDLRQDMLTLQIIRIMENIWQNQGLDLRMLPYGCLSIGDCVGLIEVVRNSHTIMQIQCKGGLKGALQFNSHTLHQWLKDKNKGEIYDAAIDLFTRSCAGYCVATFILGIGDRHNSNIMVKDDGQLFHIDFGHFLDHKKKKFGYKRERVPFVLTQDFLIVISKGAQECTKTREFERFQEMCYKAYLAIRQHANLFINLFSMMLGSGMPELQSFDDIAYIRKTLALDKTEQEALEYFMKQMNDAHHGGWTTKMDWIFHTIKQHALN
Sequence of Cytochrome P450 3A4 (P08684 whole entry): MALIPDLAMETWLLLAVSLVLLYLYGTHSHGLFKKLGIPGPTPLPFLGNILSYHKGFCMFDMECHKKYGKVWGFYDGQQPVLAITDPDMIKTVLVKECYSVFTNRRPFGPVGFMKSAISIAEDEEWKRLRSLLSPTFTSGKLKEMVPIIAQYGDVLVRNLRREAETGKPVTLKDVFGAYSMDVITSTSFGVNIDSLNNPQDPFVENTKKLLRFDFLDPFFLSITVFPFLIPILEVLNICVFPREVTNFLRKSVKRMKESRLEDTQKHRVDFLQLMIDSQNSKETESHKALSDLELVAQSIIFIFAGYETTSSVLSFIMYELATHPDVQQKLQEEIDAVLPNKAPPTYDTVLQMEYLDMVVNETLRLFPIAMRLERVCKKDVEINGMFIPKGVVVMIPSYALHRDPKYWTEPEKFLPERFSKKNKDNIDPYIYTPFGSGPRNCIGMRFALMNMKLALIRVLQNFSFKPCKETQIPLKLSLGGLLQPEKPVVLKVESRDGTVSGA
Sequence of Cytochrome P450 2C9 (P11712 whole entry): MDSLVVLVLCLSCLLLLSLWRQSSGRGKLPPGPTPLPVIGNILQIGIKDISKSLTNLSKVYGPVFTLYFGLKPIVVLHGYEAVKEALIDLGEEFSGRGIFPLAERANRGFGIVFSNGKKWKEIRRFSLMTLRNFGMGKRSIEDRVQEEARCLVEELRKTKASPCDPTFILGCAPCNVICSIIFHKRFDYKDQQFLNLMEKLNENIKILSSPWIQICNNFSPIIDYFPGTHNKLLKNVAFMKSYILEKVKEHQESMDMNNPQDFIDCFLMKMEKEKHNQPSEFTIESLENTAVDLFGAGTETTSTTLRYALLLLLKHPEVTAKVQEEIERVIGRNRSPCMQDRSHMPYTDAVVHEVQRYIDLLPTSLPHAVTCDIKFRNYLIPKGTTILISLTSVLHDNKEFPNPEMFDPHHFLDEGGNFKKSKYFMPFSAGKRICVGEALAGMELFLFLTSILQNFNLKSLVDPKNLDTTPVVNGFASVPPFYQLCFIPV

SMILES	IC50 (HT-29 [1]) [nM]	half-life [4] [h]	AUC(0-inf) [5] [ng·h/mL]	clearance [6] [mL/min/kg]	half-life [7] [h]	Tmax [8] [h]	AUC(0-t) at 24 h [9] [ng·h/mL]	MRT last at 24 h [10] [h]	IC50 (Cytochrome P450 2C9) [nM]	IC50 (Cytochrome P450 3A4) [nM]	fraction unbound at 6 h, 1 µM [11]	fraction unbound at 6 h, 1 µM [12]	fraction unbound at 6 h, 1 µM [13]	fraction unbound at 6 h, 1 µM [14]	IC50 (HT-29 [16]) [nM]	IC50 (HCT-116) [nM]	IC50 (A549) [nM]	IC50 (MCF7) [nM]	IC50 (MDA-MB-231) [nM]	solubility [17] [µM]	other results
C[C@@H]1COCCN1c1nc(-c2cccc3[nH]ccc23)nc2c1CN(C(=O)c1cccc(S(C)(=O)=O)c1)C2(C)C	197	1.32	1170	14.2	2.66	2	1620	3.6	10000	1000	0.079	0.022	0.039	0.024	19	13	280	873	435	84.3 (≈ 46 µg/mL)	Activity (LoVo [2]): Dose-Dependent Effect; Activity (HT-29 [3]): Dose-Dependent Effect; inhibition (LoVo [15]): Active; solubility [18]: 15.4 µM (≈ 8.4 µg/mL); efflux ratio [19]: 2; IC50 [20]: 1000 nM; IC50 [21]: 1000 nM; IC50 [22]: 662 nM; microsomal CLint at 1 h, 1 µM (in vitro): 66.2 µL/min/mg
C[C@@H]1COCCN1c1nc(-c2cccc3[nH]ccc23)nc2c1CN(C(=O)c1ccc3c(c1)OCO3)C2(C)C	421	1.59	2810	5.97	3.81	1.67	5700	4.36	10000	1000	0.011	0.005	0.001	0.005	45	67	439	730	279	47.6 (≈ 24.4 µg/mL)	solubility [18]: 0.34 µM (≈ 0.174 µg/mL); efflux ratio [19]: 1.2; IC50 [20]: 1000 nM; IC50 [21]: 516 nM; IC50 [22]: 1000 nM; microsomal CLint at 1 h, 1 µM (in vitro): 35.3 µL/min/mg
